Data on five substances can be found in article PMC9714824, “Hexapeptides from mammalian inhibitory hormone hunt activate and inactivate nematode reproduction” (PLOS ONE, 2022).

One assay relates to PC3 cells. The experiment in a line: MTS colorimetric viable cell assay, PC3. In kind it is cell-based, human. The settings on record: for Difference in percentage terms between control and test OD means: PC3, 30 μM, 27h, MTS, 492 nm, triplicate. The method, then:
(§1) Assays involving a range of peptides from 14mer down to 6mers assessed total viable PC3 or PNT2 cells using a 96-well plate MTS colorimetric assay (CellTiter 96 Aqueous One Solution Cell Proliferation Assay, Promega, Southampton, UK), with absorbance measured at 492 nm. Cells were seeded at 8,000 per well and grown for 27h. Peptides were administered at the outset to a final concentration of 30 μM (in 2 μl) to samples in triplicate. (A higher dosage was used than in the 14mer peptides study to shorten the timecourse of response.) Controls received buffer. Data are OD mean +/ − SEM, with statistical analysis by two tailed t-test. A time course study of the 14mers on PC3s, using the same technique, involved measurements at 24h and 48h.
(§2) Fig 5 Effects of a range of peptides on human prostate cancer cell growth in vitro. Assays involved a range of peptides from 14mers down to 6mers (Table 1), with viable cells assessed using a 96-well plate MTS colorimetric assay. Absorbance measured at 492 nm. Cells were seeded at 8,000 per well and grown for 27h. Peptides were administered at the outset to a final concentration of 30 μM (in 2 μl) to samples in triplicate. Controls received buffer. Data are OD mean +/- SEM, with statistical analysis by two tailed t-test. * p<0.05; **p<0.025.

In a further assay the test system is PNT2 cells. The experiment in a line: MTS colorimetric viable cell assay, PNT2. The format is cell-based, human. The settings on record: 30 μM, 27h, 492 nm, triplicate. The method, then: as §1, §2
The subject of the next assay is rat bone marrow cells. Nature of the assay: Bone marrow cell assay, time-lapse cell counts over 24h. The format is cell-based. Here is the method:
The method has been described previously at length. Bone marrow cells, consisting of various cell types including mesenchymal stem cells and fibroblasts, were cultured from adult male rats (Rattus norvegicus, SD strain). These cells were passaged from a growing primary stock in a T75 tissue culture flask (Sarstedt) into a 48 well tissue culture plate (IWAKI), with a cell density of 1 x 10^5/ml. The cell culture media, henceforth referred to as ‘supplemented a-MEMS,’ comprised α-MEMS media supplemented with 10% FCS and 1% penicillin/streptomycin (all Life Technologies, Carlsbad, CA, US). On the day of peptide addition to the cells, the supplemented α-MEMS was gently removed and fresh supplemented α-MEMS added, with 10% test material by volume to achieve micromolar concentrations, untreated controls receiving just fresh supplemented α-MEMS. (For dose levels see legends in respective result figures) All samples were filter sterilised using a Millex-GV […] syringe filter unit (Merck, Kenilworth, NJ, USA). The cells were imaged for 24 h using an incubated Zeiss Axiovert 135M microscope with a Prior Proscan II motorised stage, at 37 °C with a 5% CO2 in air feed. Each well of the 48-well tissue culture plate was then imaged for 24h every 5 min using Metamorph software (MDS Analytical Technologies, Wokingham, UK), with each well having four fields of view. The viability and cell numbers were reviewed by analysing the images captured over the 24h period and cell counts were taken at selected time points using the Metamorph software.
Fig 6 Bone marrow cells in culture exposed to long peptides. Cells were counted over 24h after exposure to the 14mer peptide EPL001 or its scrambled-sequence control EPL030 at 6μM final concentration or to the 20mer EPL120 at 5μM final concentration, compared to peptide-untreated controls.
Fig 7 Bone marrow cells in culture exposed to hexapeptides. Cells were counted over 24h after exposure to either EPL016 (= MKPLTG, the ‘Front 6’ of the 14mer EPL001) or EPL036 (= IEPVFT, the ‘Back 6’ of EPL030, the scrambled-sequence control of EPL001) at 1μM final concentration, compared to peptide-untreated controls.

The test system of a further assay is Caenorhabditis elegans. The settings on record: cited from earlier work. An excerpt:
As a control compound there was synthesized EPL030, having the aa sequence KLKMNGKNIEPVFT. This is a scrambling of EPL001’s sequence, based on cards drawn at random by one of us (CRM). […] The figures for fecundity were EPL001 +43 ... || Returning to EPL030, the scrambled-sequence EPL001 comparator, this has engendered perplexity by displaying the same activity as EPL001 across multiple mammalian systems. Thus, EPL030 suppressed human prostate cancer cells in vitro more than EPL001 in two laboratories and the proliferation of rat bone marrow cells in vitro in a third.

The subject of another assay is DU145 cells. Nature of the assay: MTS viable cell assay, DU145 (Epistem). In kind it is cell-based, human. Particulars: DU145, 72h. The method, then: Further assays on human prostate cancer cells were conducted at a contract research organisation (Epistem, Manchester, UK). LNCaP or DU145 cells seeded at 3,000 cells/well across a 96-well plate were cultured in RPMI (phenol red free), 10% FCS, 1% sodium pyruvate, Pen/strep and L-glutamine for 24h before exposure to peptides, at a single dose level in the case of LNCaPs or multiple dose levels in the case of DU145s. (For dose levels see Results.) Controls received vehicle (1% PBS). For the DU145s peptide administration was repeated after 24h. 72h after the first administration (DU145s) or only administration (LNCaP) total viable cell numbers were measured colorimetrically (MTS) using a CellTiter 96 AQueous One Solution Cell Proliferation Assay (Promega, Southampton, UK), following manufacturer’s instructions. Briefly, the media on the plates was replaced with the CellTiter reagent diluted 1:5 in DMEM. The plates were returned to the incubator for 3 hours before reading absorbance at 492 nm on a FLUORstar OPTIMA (BMG Labtech). CellTiter data are the absorbance minus background values (CellTiter plus DMEM), expressed as (OD mean +/− SEM). Statistical analysis was by ANOVA, Dunnett’s multiple comparisons test.

In assay [1] the test system is Steinernema siamkayai. Nature of the assay: Steinernema siamkayai reproduction and development on lipid agar plates with hexapeptides. More on the design: key to Infective juveniles / Adults: counts per plate, scaled from 0.05 ml subsamples to 20 ml. Particulars: for Infective juveniles / Adults: S3 Table 2. The format is in vivo. From the text:
(§3) The attempt was made here to replicate prior fecundity work in another species of nematode, the entomopathogenic (insect slaying) Steinernema siamkayai. Species confirmation involved standard morphological and molecular techniques (S3 File, Nematodes). S. siamkayai is a biocontrol agent of potential economic significance in global agriculture, reducing the need for pesticides. Crucial for deployment is the production of ‘infective juveniles’. These forms penetrate the larvae of insect pests, releasing a bacterium, Xenorhabdus spp., which ultimately kills the larvae. Stock solutions (5 mg mL^-1) of EPL036 (IEPVFT) and EPL630 (KLKMNG) were made up and stored at −20 °C. Lipid Agar plates were prepared by pouring 5 ml media in 60 mm plastic Petri dishes. The plates were inoculated with an overnight-grown bacterial culture of Xenorhabdus spp. (10^9 cfu/ml) at 100 μl/plate and incubated at 28 °C for 24h. Xenorhabdus bacteria are symbiotically associated with S. siamkayai. While multiplying, Xenorhabdus metabolises the constituents of the lipid agar and the resulting by-products are the food supplement for the nematodes that triggers the worms to grow and multiply. From the stock solutions, peptides were introduced individually into the centre of the Lipid Agar plates with Xenorhabdus lawn. Two concentrations of peptide were used, 4 and 8 μL of the 5 mg mL^-1 stock peptide solutions (making 20 and 40 μg of peptide per plate in total, respectively, i.e. ~6 and ~12 μM). Each peptide solution was uniformly spread using an L shaped spreader and allowed to absorb into the agar plate for 10 minutes. Nematodes were harvested beforehand as follows. Third-stage infective juveniles (IJs) of S. siamkayai were used to infect fourth instar Galleria larvae. Following larval death, the Galleria cadavers were placed on a White’s Trap to harvest fresh progeny within 5–6 days. After storage in sterile water, these new-generation IJs were concentrated and inoculated on the bacterial plates on Day 1 at 500 and 1000 IJs /plate. The eight treatments (two inocula at two peptide concentrations) and two controls (two inocula without peptides) were replicated (x3) and incubated at 28 °C. Observations of behaviour and morphology were made at intervals throughout the study, then on Day 5 (i.e. after 4 units of 24h) the nematodes were harvested. Two ml of distilled water was poured on each Petri dish and gently stirred to release the nematodes from the surface. The surface washings containing suspended nematodes were collected in a standard volume of 20 ml of distilled water. The number of mature adults (male and female) and the second-generation juveniles (J1, J2, J3 and pre-adults) were counted using a dissecting microscope (x10 magnification, 4 fields) in 0.05 ml subsamples (x3) and multiplied up to the standard volume of 20 ml.
Fig 2 Developmental impact on Steinernema siamkayai of hexapeptides after 4 days. INOCULUM = founding population of infective juveniles (IJs). ‘Infective juveniles’ on the vertical axis are mostly second-generation IJs. Peptides applied at the start of the study were EPL036 = IEPVFT, […] = KLKMNG. Total = Adults + Infective juveniles. Data are mean +/- SEM (average of 3 replicates). Statistical analysis: ANOVA. Control bars are doubly represented for ease of comparison. Note different vertical axes. […]

Assay [2] deals with Steinernema siamkayai. The experiment in a line: Nematode pilot study fecundity (S3 Table 1). In kind it is in vivo. Particulars: inoculum 5 IJs.
Text: as §3
Mean number of A) Infective juveniles and B) Adults following inoculation of Petri dishes treated with EPL036 and EPL630 at 4 µL and 8 µL and an untreated control; Petri dishes were initially inoculated with 5 infective juveniles of Steinernema siamkayai following the method used in the main manuscript (Single way ANOVA presented beneath each data set).

Setting [3] is: 4 µL, inoculum 1000, mean of 3 reps.
Where [4] appears, read: 8 µL, inoculum 1000, mean of 3 reps.

Turning to “MLKTGEKPNFKNNI [EPL141, Human version of EPL143, with sheep V replaced by human N9]”, the “Difference in percentage terms between control and test OD means” value is −22.6% in the assay with PC3 cells and −27.9% in the assay with PNT2 cells. The “Mean OD as % of the EPL001 mean” value in the assay on PC3 cells (PC3 time course study, 24h) came to 56%.
Regarding “MLKTGEKPV [EPL901, first 9 aa of EPL143, from sSgII’s second sorting domain]”, the “Difference in percentage terms between control and test OD means” value in the assay on PC3 cells is −21.2%; in the assay on PNT2 cells it was −28.9%.
Turning to MKPLTG [EPL016, MKPLTG, EPL001 Front 6], in the assay on rat bone marrow cells (1μM in the medium, controls increased by about the same percentage), the “Reduction of the population of rat bone marrow cells” value came out at 18%. Also, the “Increase in cumulative offspring vs untreated controls” value in the assay with Caenorhabditis elegans is listed as 50%.
On to “MLKTGEKPVFKNNI [EPL143, Contiguous form of sSgII-14, an anagram of EPL001; benchmark for chi-squared test]”, for which the “Difference in percentage terms between control and test OD means” value with PC3 cells is listed as −10.2%; with PNT2 cells, −20.6%. For the same substance, the “Test mean OD vs control mean” value is given as −4.3% in the assay on DU145 cells (0.15 μM) and −18.7% in the assay on DU145 cells (150 μM (highest concentration)).
On to IEPVFT [EPL036, IEPVFT, EPL030 Back 6], for which the Infective juveniles in the assay with Steinernema siamkayai [1] (4 µL, inoculum 500, mean of 3 reps) amounted to 7482; in the assay on Steinernema siamkayai [1] (setting [3]), 13686; in the assay on Steinernema siamkayai [1] (8 µL, inoculum 500, mean of 3 reps), 9644; with Steinernema siamkayai [1] (setting [4]), 19161; in the assay on Steinernema siamkayai [1] (8 µL, inoculum 1000, rep 1), 19141; in the assay with Steinernema siamkayai [1] (8 µL, inoculum 1000, rep 2), 19149. The Infective juveniles in the assay on Steinernema siamkayai [1] (8 µL, inoculum 1000, rep 3) was 19193; in the assay on Steinernema siamkayai [2] (4 µL, mean of 9 reps) it was 43.2; in the assay with Steinernema siamkayai [2] (8 µL, mean of 9 reps), 75.8. Moreover, the Adults in the assay on Steinernema siamkayai [1] (setting [3]) came to 446; with Steinernema siamkayai [1] (setting [4]), 10; in the assay with Steinernema siamkayai [2] (4 µL, mean of 9 reps), 1.7; in the assay on Steinernema siamkayai [2] (4 µL, rep 1), 1; in the assay on Steinernema siamkayai [2] (4 µL, rep 2), 1; with Steinernema siamkayai [2] (4 µL, rep 3), 2. Moreover, the Adults turned out to be 1 in the assay on Steinernema siamkayai [2] (4 µL, rep 4); 2 in the assay on Steinernema siamkayai [2] (4 µL, rep 5); 2 in the assay with Steinernema siamkayai [2] (4 µL, rep 6); 2 in the assay on Steinernema siamkayai [2] (4 µL, rep 7); 2 with Steinernema siamkayai [2] (4 µL, rep 8); 2 in the assay on Steinernema siamkayai [2] (4 µL, rep 9). The Adults worked out at 0 in the assay on Steinernema siamkayai [2] (8 µL, mean of 9 reps); 0 in the assay on Steinernema siamkayai [2] (8 µL, rep 1); 0 in the assay on Steinernema siamkayai [2] (8 µL, rep 2); 0 with Steinernema siamkayai [2] (8 µL, rep 3); 0 in the assay with Steinernema siamkayai [2] (8 µL, rep 4); 0 with Steinernema siamkayai [2] (8 µL, rep 5). The Adults came out at 0 in the assay with Steinernema siamkayai [2] (8 µL, rep 6); 0 with Steinernema siamkayai [2] (8 µL, rep 7); 0 in the assay on Steinernema siamkayai [2] (8 µL, rep 8); 0 in the assay on Steinernema siamkayai [2] (8 µL, rep 9). Further, the “Egg production in females” value in the assay on Steinernema siamkayai [1] (compared with untreated controls, 48h exposure (Fig 3)) is on record as “visibly bloated with eggs”. In addition, in the assay on Steinernema siamkayai [1] (observational), the “Time after incubation to fully grown males and females” value is listed as 36 h. For the same substance, the “Time for infective juveniles to transform into pre-adults” value in the assay on Steinernema siamkayai [1] (observational) is given as at most 24 h. In addition, the “Effect on bone marrow cells in culture” value with rat bone marrow cells (1μM final concentration, in words (Fig 7)) was “cytostatic”. Also, the “Increase in cumulative offspring vs untreated controls” value in the assay with Caenorhabditis elegans is given as “+79%”.
